The results in this text go back to patent US11242337B2, “Compounds useful for treating gastrointestinal tract disorders” (Ardelyx, Inc., priority 2017, dated 2022).

This assay deals with human ileum monolayer culture. Kind of assay: Sustained inhibition of apical acid secretion in human organoid monolayer cell cultures (ileum). To be noted: Homo sapiens, 48 h; 1 μM apical, dosed day 6, apical media pH day 8, vs DMSO. The format is cell-based. Here is the method:
Basal media (BM) consisted of advanced DMEM/F12 containing 10 mM HEPES Invitrogen, 15630-080), 1:100 Glutamax (Invitrogen, 35050-061), and 1:100 penicillin/streptomycin (Invitrogen, 15140-122). Supplemented basal media (SBM) contained 1:100 N2 (Invitrogen, 17502-048), 1:50 B27 (Invitrogen, 12587-010), 1 mM N-acetylcysteine (Sigma, A9165), and 10 nM [Leu15]-gastrin I (Sigma, G9145). Growth factors used included 50 ng per mL mouse EGF (Peprotech, 315-09), 100 ng per mL mouse noggin (Peprotech, 250-38), 500 ng per mL human R-spondin 1 (R&D, 4645-RS), 100 ng per mL mouse Wnt-3a (R&D, 1324-WN), 20 μM. Y-27632 (Tocris, 1254), 10 mM nicotinamide (Sigma, N0636), 500 nM A83-01 (Tocris, 2939), 10 μM SB202190 (Tocris, 1264). Transwells were 0.4 μm pore polyester membrane 24-well Transwell inserts (Corning). Cultures were incubated at 37° C. in 5% CO2.
Human ileum organoids were cultured in WENRNAS (Wnt, EGF, noggin, R-spondin1, Nicotinamide, A83-01, SB202190) and typically grown for 7-12 days before being used to plate monolayer cultures. On day 0, organoid cultures embedded in Matrigel were treated with TrypLE Express to break organoids into small pieces and/or single cells. The cells were resuspended to 0.5×10^6 cells/mL in SBM containing WENRAY (Wnt, EGF, noggin, R-spondin1, A83-01, Y-27632). Following this step, 200 μL of cell suspension was plated into the apical side of a 24-well Transwell (100,000 cells/well) and 600 μL of SBM with WENRAY was added to the basolateral side. Ileum cells were differentiated with ENRA (EGF, noggin, R-spondin 1, A83-01) on day 3. The color of apical compartment turns from pink or orange to yellow due to the increase in NHE3 expression after differentiation.
Each human ileum monolayer culture well was washed twice with fresh SBM on the apical side on day 6 before compound dosing. All compound stocks were 10 mM dissolved in DMSO. Each compound stock was individually mixed with fresh SBM to reach final compound concentration 1 μM and dosed only on the apical side of the monolayer (total volume 200 μl). DMSO at the equivalent concentration was used as the vehicle control. Duplicate wells were dosed for each compound. On day 8, apical media pH was measured by pH electrode, to determine the ability of example compounds to produce sustained inhibition of NHE3 activity in a human monolayer culture system by preventing proton secretion into the apical compartment.

Some results are limits rather than exact numbers.

Turning to `Cc1cc(Cl)cc2c1C[C@H](N1CCNCC1)[C@H]2Oc1ccc(S(=O)(=O)NCCOCCOCCNC(=O)NCCCCNC(=O)NCCOCCOCCNS(=O)(=O)c2ccc(O[C@H]3c4cc(Cl)cc(C)c4C[C@@H]3N3CCNCC3)c(F)c2)cc1F` [Example 36, 3-[2-(2-[2-[(4-[[(1S,2S)-6-Chloro-4-methyl-2-(piperazin-1-yl)-2,3-dihydro-1H-inden-1-yl]oxy]-3-fluorobenzene)sulfonamido]ethoxy]ethoxy)ethyl]-1-[4-([[2-(2-[2-[(4-[[(1S,2S)-6-chloro-4-methyl-2-(piperazin-1-yl)-2,3-dihydro-1H-inden-1-yl]oxy]-3-fluorobenzene)sulfonamido]ethoxy]ethoxy)ethyl]carbamoyl]amino)butyl]urea; bis(trifluoroacetic acid)], the inhibition (in general, the relative decrease from the control value, in per cent) at 1 µM was above 70%. As to `Cc1cc(S(=O)(=O)N2CC[C@@H](COCCOCCNC(=O)NCCCCNC(=O)NCCOCCOC[C@@H]3CCN(S(=O)(=O)c4ccc(O[C@H]5c6cc(Cl)cc(Cl)c6C[C@@H]5N(C)C)c(C)c4)C3)C2)ccc1O[C@H]1c2cc(Cl)cc(Cl)c2C[C@@H]1N(C)C` [Example 45, 3-[2-(2-[[(3R)-1-[(4-[[(1S,2S)-4,6-Dichloro-2-(dimethylamino)-2,3-dihydro-1H-inden-1-yl]oxy]-3-methylbenzene)sulfonyl]pyrrolidin-3-yl]methoxy]ethoxy)ethyl]-1-[4-([[2-(2[[(3R)-1-[(4-[[(1S,2S)-4,6-dichloro-2-(dimethylamino)-2,3-dihydro-1H-inden-1-yl]oxy]-3-methylbenzene)sulfonyl]pyrrolidin-3-yl]methoxy]ethoxy)ethyl]carbamoyl]amino)butyl]urea; bis(trifluoroacetic acid)], the inhibition at 1 µM lay in the range of 50 to 70%. For the molecule `Cc1cc(S(=O)(=O)N2CC[C@@H](COc3ccnc(CNC(=O)NCCCCNC(=O)NCc4cc(OC[C@@H]5CCN(S(=O)(=O)c6ccc(O[C@H]7c8cc(Cl)cc(Cl)c8C[C@@H]7N(C)C)c(C)c6)C5)ccn4)c3)C2)ccc1O[C@H]1c2cc(Cl)cc(Cl)c2C[C@@H]1N(C)C` [Example 49, 3-[(4-[[(3R)-1-[(4-[[(1S,2S)-4,6-Dichloro-2-(dimethylamino)-2,3-dihydro-1H-inden-1-yl]oxy]-3-methylbenzene)sulfonyl]pyrrolidin-3-yl]methoxy]pyridin-2-yl)methyl]-1-[4-([[(4-[[(3R)-1-[(4-[[(1S,2S)-4,6-dichloro-2-(dimethylamino)-2,3-dihydro-1H-inden-1-yl]oxy]-3-methylbenzene)sulfonyl]pyrrolidin-3-yl]methoxy]pyridin-2-yl)methyl]carbamoyl]amino)butyl]urea], the inhibition at 1 µM is above 70%.

Regarding `Cc1cc(S(=O)(=O)N[C@H]2CCN(CCOCCNC(=O)NCCCCNC(=O)NCCOCCN3CC[C@H](NS(=O)(=O)c4ccc(O[C@H]5c6cc(Cl)cc(Cl)c6C[C@@H]5N(C)C)c(C)c4)C3)C2)ccc1O[C@H]1c2cc(Cl)cc(Cl)c2C[C@@H]1N(C)C` [Example 52, 3-(2-[2-[(3S)-3-[(4-[[(1S,2S)-4,6-Dichloro-2-(dimethylamino)-2,3-dihydro-1H-inden-1-yl]oxy]-3-methylbenzene)sulfonamido]pyrrolidin-1-yl]ethoxy]ethyl)-1-(4-[[(2-[2-[(3S)-3-[(4-[[(1S,2S)-4,6-dichloro-2-(dimethylamino)-2,3-dihydro-1H-inden-1-yl]oxy]-3-methylbenzene)sulfonamido]pyrrolidin-1-yl]ethoxy]ethyl)carbamoyl]amino]butyl)urea], the inhibition at 1 µM is above 70%.

`Cc1cc(S(=O)(=O)N[C@@H]2CCN(CCOCCNC(=O)NCCCCNC(=O)NCCOCCN3CC[C@@H](NS(=O)(=O)c4ccc(O[C@H]5c6cc(Cl)cc(C#N)c6C[C@@H]5N(C)C)c(C)c4)C3)C2)ccc1O[C@H]1c2cc(Cl)cc(C#N)c2C[C@@H]1N(C)C` [Example 55, 3-(2-[2-[(3R)-3-[(4-[[(1S,2S)-6-Chloro-4-cyano-2-(dimethylamino)-2,3-dihydro-1H-inden-1-yl]oxy]-3-methylbenzene)sulfonamido]pyrrolidin-1-yl]ethoxy]ethyl)-1-(4-[[(2-[2-[(3R)-3-[(4-[[(1S,2S)-6-chloro-4-cyano-2-(dimethylamino)-2,3-dihydro-1H-inden-1-yl]oxy]-3-methylbenzene)sulfonamido]pyrrolidin-1-yl]ethoxy]ethyl)carbamoyl]amino]butyl)urea] gave an inhibition at 1 µM below 50%. In the case of `N#Cc1cc(Cl)cc2c1C[C@H](N1CCNCC1)[C@H]2Oc1ccc(S(=O)(=O)N[C@@H]2CCN(CCOCCNC(=O)NCCCCNC(=O)NCCOCCN3CC[C@@H](NS(=O)(=O)c4ccc(O[C@H]5c6cc(Cl)cc(C#N)c6C[C@@H]5N5CCNCC5)c(F)c4)C3)C2)cc1F` [Example 109, 4-([(1S,2S)-6-Chloro-4-cyano-2-(piperazin-1-yl)-2,3-dihydro-1H-inden-1-yl]oxy)-N—[(R)-1-(20-[(R)-3-[(4-([(1S,2S)-6-chloro-4-cyano-2-(piperazin-1-yl)-2,3-dihydro-1H-inden-1-yl]oxy)-3-fluorophenyl)sulfonamide)pyrrolidin-1-yl]-7,14-dioxo-3,18-dioxa-6,8,13,15-tetraazaicosyl)pyrrolidin-3-yl]-3-fluorobenzenesulfonamide; tetra(trifluoroacetate)], the inhibition at 1 µM was above 70%.

With `CN(C)[C@H]1CCCN([C@H]2Cc3c(C#N)cc(Cl)cc3[C@@H]2Oc2ccc(S(=O)(=O)NCCOCCOCCNC(=O)NCCCCNC(=O)NCCOCCOCCNS(=O)(=O)c3ccc(O[C@H]4c5cc(Cl)cc(C#N)c5C[C@@H]4N4CCC[C@H](N(C)C)C4)cc3)cc2)C1` [Example 122, 4-([(1S,2S)-6-Chloro-4-cyano-2-[(S)-3-(dimethylamino)piperidin-1-yl]-2,3-dihydro-1H-inden-1-yl]oxy)-N-[26-([4-([(1S,2S)-6-chloro-4-cyano-2-[(S)-3-(dimethylamino)piperidin-1-yl]-2,3-dihydro-1H-inden-1-yl]oxy)phenyl]sulfonamido)-10,17-dioxo-3,6,21,24-tetraoxa-9,11,16,18-tetraazahexacosyl]benzenesulfonamide], the inhibition at 1 µM was above 70%. As for `N#Cc1cc(Cl)cc2c1C[C@H](N1CCNCC1)[C@H]2Oc1ccc(S(=O)(=O)NC2CCN(CCOCCNC(=O)NCCCCNC(=O)NCCOCCN3CCC(NS(=O)(=O)c4ccc(O[C@H]5c6cc(Cl)cc(C#N)c6C[C@@H]5N5CCNCC5)cc4)CC3)CC2)cc1` [Example 123, 4-([(1S,2S)-6-Chloro-4-cyano-2-(piperazin-1-yl)-2,3-dihydro-1H-inden-1-yl]oxy)-N-[1-(20-[4-([4-([(1S,2S)-6-chloro-4-cyano-2-(piperazin-1-yl)-2,3-dihydro-1H-inden-1-yl]oxy)phenyl]sulfonamide]piperidin-1-yl)-7,14-dioxo-3,18-dioxa-6,8,13,15-tetraazaicosyl]piperidin-4-yl)benzenesulfonamide], the figure is above 70%.
